Values quoted from earlier work, collected in PubChem BioAssay AID1259409 (Chemical Carcinogenesis Research Information System (CCRIS), 2018).

System: rodent chemically induced tumor inhibition, incidence and multiplicity
Experiment: CCRIS tumor inhibitor studies
Settings: Route [Inhibitor]: DERMAL, Species: MOUSE, Target Tissue: Type of Lesion: SKIN: PAPILLOMA, Promoter: 12-O-TETRADECANOYLPHORBOL-13-ACETATE, 16561-29-8

For `O=c1cc(-c2ccccc2)oc2c1ccc1ccccc12`, the “tumour outcome (control, treated, inhibition, significance)” value (Carcinogen: 7,14-DIMETHYLBENZO[A,H]ANTHRACENE, 35335-07-0, Dose [Inhibitor]: 0, 370 NMOL IN 0.2 ML ACETONE APPLIED 5 MIN PRIOR TO CARCINOGEN (STUDY DURATION: 21 WK), Strain/Sex: SENCAR/FEMALE, Dose [Carcinogen]: 47.5 NMOL IN 0.2 ML ACETONE ONCE) is listed as 97%, 96%, 1%, not calculated, the “tumour outcome (control, treated, inhibition, significance)” value (Carcinogen: 7,14-DIMETHYLBENZO[A,H]ANTHRACENE, 35335-07-0, Dose [Inhibitor]: 0, 3700 NMOL IN 0.2 ML ACETONE APPLIED 5 MIN PRIOR TO CARCINOGEN (STUDY DURATION: 21 WK), Strain/Sex: SENCAR/FEMALE, Dose [Carcinogen]: 47.5 NMOL IN 0.2 ML ACETONE ONCE) is listed as 97%, 97%, 0% and the “tumour outcome (control, treated, inhibition, significance)” value (Carcinogen: 7-(BROMOMETHYL)BENZ[A]ANTHRACENE, 24961-39-3, Dose [Inhibitor]: 100 UG IN 0.2 ML ACETONE ONCE 5 MIN BEFORE CARCINOGEN TREATMENT (STUDY DURATION: 31 WK), Strain/Sex: CD-1/FEMALE, Dose [Carcinogen]: 3125 NMOL IN 0.2 ML ACETONE ONCE) is listed as 55%, 30%, 45%, not calculated. The “tumour outcome (control, treated, inhibition, significance)” value (Carcinogen: 7-BROMOMETHYL-12-METHYLBENZ[A]ANTHRACENE, 16238-56-5, Dose [Inhibitor]: 100 UG IN 0.2 ML ACETONE ONCE 5 MIN BEFORE CARCINOGEN TREATMENT (STUDY DURATION: 31 WK), Strain/Sex: CD-1/FEMALE, Dose [Carcinogen]: 600 NMOL IN 0.2 ML ACETONE ONCE) was 96%, 72%, 25%, not calculated, the “tumour outcome (control, treated, inhibition, significance)” value (Carcinogen: 7-FORMYL-12-METHYLBENZ[A]ANTHRACENE, 13345-61-4, Dose [Inhibitor]: 100 UG IN 0.2 ML ACETONE ONCE 5 MIN BEFORE CARCINOGEN TREATMENT (STUDY DURATION: 31 WK), Strain/Sex: CD-1/FEMALE, Dose [Carcinogen]: 740 NMOL IN 0.2 ML ACETONE ONCE) was 84%, 63%, 25%, not calculated and the “tumour outcome (control, treated, inhibition, significance)” value (Carcinogen: 7-HYDROXYMETHYL-12-METHYLBENZ[A]ANTHRACENE, 568-75-2, Dose [Inhibitor]: 100 UG IN 0.2 ML ACETONE ONCE 5 MIN BEFORE CARCINOGEN TREATMENT (STUDY DURATION: 31 WK), Strain/Sex: CD-1/FEMALE, Dose [Carcinogen]: 400 NMOL IN 0.2 ML ACETONE ONCE) was 48%, 52%, -8%, not calculated. For the same molecule, the “tumour outcome (control, treated, inhibition, significance)” value (Carcinogen: 12-BROMOMETHYL-7-METHYLBENZ[A]ANTHRACENE, 59230-81-8, Dose [Inhibitor]: 100 UG IN 0.2 ML ACETONE ONCE 5 MIN BEFORE CARCINOGEN TREATMENT (STUDY DURATION: 31 WK), Strain/Sex: CD-1/FEMALE, Dose [Carcinogen]: 600 NMOL IN 0.2 ML ACETONE ONCE) was 87%, 74%, 15%, not calculated, the “tumour outcome (control, treated, inhibition, significance)” value (Carcinogen: BENZO[A]PYRENE, 50-32-8, Dose [Inhibitor]: 10 UG IN 0.2 ML ACETONE ONCE 5 MINUTES BEFORE CARCINOGEN TREATMENT (STUDY DURATION: 31 WK), Strain/Sex: CD-1/FEMALE, Dose [Carcinogen]: 400 NMOL IN 0.2 ML ACETONE ONCE) was 90%, 90%, 0%, not calculated and the “tumour outcome (control, treated, inhibition, significance)” value (Carcinogen: BENZO[A]PYRENE, 50-32-8, Dose [Inhibitor]: 100 UG IN 0.2 ML ACETONE ONCE 5 MINUTES BEFORE CARCINOGEN TREATMENT (STUDY DURATION: 31 WK), Strain/Sex: CD-1/FEMALE, Dose [Carcinogen]: 400 NMOL IN 0.2 ML ACETONE ONCE) was 90%, 80%, 11%, not calculated. For the same molecule, the “tumour outcome (control, treated, inhibition, significance)” value (Carcinogen: BENZO[A]PYRENE, 50-32-8, Dose [Inhibitor]: 200 UG IN 0.2 ML ACETONE ONCE 5 MINUTES BEFORE CARCINOGEN TREATMENT (STUDY DURATION: 31 WK), Strain/Sex: CD-1/FEMALE, Dose [Carcinogen]: 400 NMOL IN 0.2 ML ACETONE ONCE) was 90%, 77%, 14%, not calculated, the “tumour outcome (control, treated, inhibition, significance)” value (Carcinogen: DIBENZO[A,H]ANTHRACENE, 53-70-3, Dose [Inhibitor]: 0, 370 NMOL IN 0.2 ML ACETONE APPLIED 5 MIN PRIOR TO CARCINOGEN (STUDY DURATION: 21 WK), Strain/Sex: SENCAR/FEMALE, Dose [Carcinogen]: 200 NMOL IN 0.2 ML ACETONE ONCE) was 100%, 77%, 23%, not calculated and the “tumour outcome (control, treated, inhibition, significance)” value (Carcinogen: DIBENZO[A,H]ANTHRACENE, 53-70-3, Dose [Inhibitor]: 0, 3700 NMOL IN 0.2 ML ACETONE APPLIED 5 MIN PRIOR TO CARCINOGEN (STUDY DURATION: 21 WK), Strain/Sex: SENCAR/FEMALE, Dose [Carcinogen]: 200 NMOL IN 0.2 ML ACETONE ONCE) was 100%, 80%, 20%, not calculated.
